{"source": "paper PMC11365428", "about": "(The Journal of Biological Chemistry, 2024)", "type_in_all_cases": "cell-based", "key": {"[1]": {"target": "T1, apTKRPR-A (Aplysia californica, UniProt A0AAU7SSZ1)", "T1 sequence (A0AAU7SSZ1 1-398)": "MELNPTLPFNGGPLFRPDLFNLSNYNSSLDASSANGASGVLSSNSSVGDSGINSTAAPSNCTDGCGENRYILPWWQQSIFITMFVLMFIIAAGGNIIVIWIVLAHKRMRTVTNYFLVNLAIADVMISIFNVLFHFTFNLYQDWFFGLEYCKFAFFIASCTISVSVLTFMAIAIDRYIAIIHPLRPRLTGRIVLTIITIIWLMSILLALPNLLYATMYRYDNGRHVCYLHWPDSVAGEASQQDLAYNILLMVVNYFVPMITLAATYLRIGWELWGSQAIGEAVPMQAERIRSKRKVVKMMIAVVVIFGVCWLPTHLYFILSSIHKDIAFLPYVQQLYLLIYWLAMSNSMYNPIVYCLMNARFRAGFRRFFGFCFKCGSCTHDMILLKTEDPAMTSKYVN", "test": "IP1 accumulation assay, CHO-K1 cells transiently expressing apTKRPR-A", "protocol": "(§1) To express putative Aplysia receptors transiently in CHO-K1 cells, the cDNAs were subcloned into the pcDNA3.1(+) or pcDNA3.1(+)-FLAG (for ELISA experiments only, see “Cell surface expression analysis by ELISA” section) expression vector. On the day before transfection, the CHO-K1 cells were passaged into 60 mm diameter tissue culture–treated dishes, and the transfection experiments were performed when the cells were grown to 70 to 90% confluence. CHO-K1 cells were transfected with the cDNA plasmid constructs using Turbofect Transfection reagent (Thermo Fisher Scientific, R0531), following the manufacturer’s instructions. […] The DNA/TurboFect mixture dropwise was then added to the dish, and the cells were incubated at 37 °C in a humidified incubator containing 5% CO2 overnight.\n(§2) On the third day, the activation of the putative receptors was detected by monitoring intracellular IP1 concentration using an IP-One Gq kit (Cisbio, 62IPAPEB) in Tecan Spark. Except for using 0.5x reagent, all other procedures were performed following the manufacturer’s instructions. IP1 accumulation assay measures the accumulation of IP1, which is hydrolyzed from the second messenger, and inositol triphosphate. Inositol triphosphate is generated by the Gαq pathway when a GPCR is activated by an appropriate ligand."}, "[2]": {"target": "T2, apTKRPR-B (Aplysia californica, UniProt A0AAU7STS1)", "T2 sequence (A0AAU7STS1 1-447)": "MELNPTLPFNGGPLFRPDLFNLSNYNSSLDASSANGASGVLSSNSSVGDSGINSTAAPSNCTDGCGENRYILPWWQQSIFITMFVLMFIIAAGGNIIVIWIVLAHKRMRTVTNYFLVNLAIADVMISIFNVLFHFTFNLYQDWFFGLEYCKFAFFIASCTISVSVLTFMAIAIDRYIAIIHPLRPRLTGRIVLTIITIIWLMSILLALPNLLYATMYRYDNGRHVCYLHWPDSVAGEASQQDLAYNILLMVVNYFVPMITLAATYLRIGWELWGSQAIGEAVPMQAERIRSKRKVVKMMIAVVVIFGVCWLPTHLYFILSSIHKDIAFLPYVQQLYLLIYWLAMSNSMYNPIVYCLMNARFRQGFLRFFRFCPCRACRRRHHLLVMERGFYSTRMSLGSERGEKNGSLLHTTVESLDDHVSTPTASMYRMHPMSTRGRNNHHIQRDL", "test": "IP1 accumulation assay, CHO-K1 cells transiently expressing apTKRPR-B", "protocol": "as §1, §2"}, "[3]": {"target": "T2, apTKRPR-B", "test": "Cell surface expression by ELISA after ligand exposure, FLAG-apTKRPR-B", "settings": "10 µM, different durations, compared with 0 min, n = 4", "protocol": "(§3) Cell surface expression determination of apTKRPRs and mutant receptors, all with FLAG tags, was performed using a procedure modified from previous work ([64], [122], [123], [124]). Specifically, CHO-K1 cells were cultured in F-12K medium (Gibco, 21127-022) with 10% FBS (Genial, G11-70500) at 37 °C in a humidified incubator containing 5% CO2. When the cells were grown to 70 to 90% confluence, transfection experiments were performed (see “Cell culture and transfection” section). After 24 h, transfected cells were plated in 96-well white clear-bottom cell culture plates (Corning, 3610) at a density of 20,000 cells in 100 μl per well and incubated overnight. The following day, culture media was aspirated and cells were washed twice with 200 μl of 1× PBS (Procell, PB180327). Then, 100 μl of 1× PBS containing 5% (w/v) BSA was added to each well and incubated at room temperature. After 30 min, 100 μl of 1:10,000 anti-FLAG M2-horseradish peroxidase conjugate (Sigma-Aldrich, Cat A8592) was added to each well and incubated for 30 min at 37 °C. Cells were washed twice with 200 μl of 1× PBS and then incubated with 200 μl of TMB Chromogen Solution (Sangon Biotech, E661007) for 30 min at 37 °C in the dark. Finally, 50 μl of ELISA Stopping Solution (Sangon Biotech, E661006) was added to each well to stop the reaction. The absorbance at 450 nm was measured using a Tecan Spark microplate reader. […]"}, "[4]": {"target": "apTKRPR-B T391 (Aplysia californica, UniProt A0AAU7STS1, DEL392-447)", "test": "Cell surface expression by ELISA after ligand exposure, truncated apTKRPR-B T391", "settings": "10 µM, 60 min, n = 5", "protocol": "as §3"}, "[5]": {"settings": "10^-5 M compared with 10^-10 M (control), n = 3, no Gαq cotransfection"}}, "note": "Non-standard residues stand in square brackets, D forms with d. Residues, ends and D or L forms follow the SMILES beside them. pGlu = O=C1CC[C@@H](C(=O)O)N1", "data": [{"smiles": "CC(C)C[C@H](NC(=O)[C@H](Cc1c[nH]cn1)NC(=O)[C@@H]1CCCN1C(=O)[C@@H]1CCC(=O)N1)C(=O)NCC(=O)N[C@@H](Cc1ccccc1)C(=O)N[C@@H](Cc1c[nH]cn1)C(=O)NCC(=O)N[C@@H](CO)C(=O)N[C@@H](CCCNC(=N)N)C(N)=O", "note": "[apTKRP-2b] ([pGlu]PHLGFHGSR-NH2)", "values": [{"measurement": "EC50", "setting": "[1]", "result": 37.2, "unit": "nM"}, {"measurement": "IP1 response of apTKRPR-A in screening", "setting": "[1]; [5]", "result": "responded"}, {"measurement": "EC50", "setting": "[2]", "result": 5.37, "unit": "nM"}, {"measurement": "IP1 response of apTKRPR-B in screening", "setting": "[2]; [5]", "result": "responded"}, {"measurement": "cell surface receptor expression of apTKRPR-B after agonist exposure", "setting": "[3]", "result": "significant loss of receptor expression"}, {"measurement": "cell surface receptor expression of T391 after agonist exposure", "setting": "[4]", "result": "did not change significantly"}]}]}
